Results as given in US8134015B2, “Compound inhibiting in vivo phosphorous transport and medicine containing the same” (Kyowa Hakko Kirin Co., Ltd., priority 2003, dated 2012).

Molecular target: T1, rat NaPi-2b (Rattus norvegicus, UniProt Q9JJ09)
T1 construct: expressed in transfected cells; host or cells: Xenopus oocytes injected with cRNA
T1 sequence (Q9JJ09 1-695): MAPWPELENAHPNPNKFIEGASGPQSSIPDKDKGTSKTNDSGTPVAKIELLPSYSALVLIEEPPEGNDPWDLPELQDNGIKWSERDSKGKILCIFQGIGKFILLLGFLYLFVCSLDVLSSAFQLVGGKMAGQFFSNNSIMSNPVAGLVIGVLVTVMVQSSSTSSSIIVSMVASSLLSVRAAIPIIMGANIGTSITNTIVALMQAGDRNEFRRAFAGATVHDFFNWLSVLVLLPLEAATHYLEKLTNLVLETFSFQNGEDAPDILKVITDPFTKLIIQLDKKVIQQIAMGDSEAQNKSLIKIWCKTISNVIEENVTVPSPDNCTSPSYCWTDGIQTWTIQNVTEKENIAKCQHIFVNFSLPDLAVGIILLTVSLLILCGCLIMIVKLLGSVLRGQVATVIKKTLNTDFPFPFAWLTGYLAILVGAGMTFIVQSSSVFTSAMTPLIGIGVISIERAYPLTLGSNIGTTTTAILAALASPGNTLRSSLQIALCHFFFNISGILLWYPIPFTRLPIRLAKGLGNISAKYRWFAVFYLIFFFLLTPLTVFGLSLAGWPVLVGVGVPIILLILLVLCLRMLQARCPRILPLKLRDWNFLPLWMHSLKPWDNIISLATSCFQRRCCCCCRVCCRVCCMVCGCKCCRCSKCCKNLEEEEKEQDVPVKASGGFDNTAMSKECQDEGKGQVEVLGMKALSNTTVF
Test: Sodium-dependent phosphate uptake of Xenopus oocytes which expressed NaPi-2b (32P)
Assay type: cell-based
Conditions: for inhibition at 300 µM: phosphate uptake, oocytes expressing rat NaPi-2b, determined from inhibition curve; for IC50: Xenopus oocytes expressing rat NaPi-2b, 32P radioactive phosphorus, read-out: IC50 (phosphate uptake inhibitory activity)
In short: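 Inhibition at 300 μM and 100 μM was read off one inhibition curve of 32P phosphate uptake. Uptake was measured in Xenopus oocytes cultured 2 days after injection of cRNA for cloned rat NaPi-2b.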

inhibition at 300 µM [%] | IC50 [µM] | SMILES
86.8 | – | Cc1ccc(/C=N/NC(=O)c2c(C)csc2NC(=O)c2cccc(CSCCS(=O)(=O)O)c2)cc1 [Compound 782, 2-{3-[4-Methyl-3-(4-methyl-benzylidene-hydrazinocarbonyl)-thiophen-2-ylcarbamoyl]-benzylsulfanyl}-ethanesulfonic acid]
46.2 | – | CN(CCCNCc1ccc(C(=O)Nc2ccc(Br)cc2C(=O)N/N=C/c2ccc(Cl)c(C(F)(F)F)c2)cc1)c1ccccc1 [Compound 761, N-[4-Bromo-2-(4-chloro-3-trifluoromethyl-benzylidene-hydrazinocarbonyl)-phenyl]-4-{[3-(methyl-phenyl-amino)-propylamino]-methyl}-benzamide]
– | < 3 | CCN(CC)CCNCc1cccc(C(=O)Nc2scc(C)c2C(=O)N/N=C/c2cccc(F)c2)c1 [Compound 584, 3-[(2-Diethylamino-ethylamino)-methyl]-N-[3-(3-fluoro-benzylidene-hydrazinocarbonyl)-4-methyl-thiophen-2-yl]-benzamide]
– | 0.75 | Cc1ccc(/C=N/NC(=O)c2ccccc2NC(=O)c2cccnc2)cc1 [Compound 132, N-[2-(4-Methyl-benzylidene-hydrazinocarbonyl)-phenyl]-nicotinamide]
– | 3.72 | Cc1ccc(/C=N/NC(=O)c2c(NC(=O)c3cccc(CN4CCC(CO)CC4)c3)sc3ccccc23)cc1 [Compound 799, 3-(4-Hydroxymethyl-piperidin-1-ylmethyl)-N-[3-(4-methyl-benzylidene-hydrazinocarbonyl)-benzo[b]thiophen-2-yl]-benzamide]
– | 4.01 | O=C(Nc1ccc(Cl)cc1C(=O)N/N=C/c1cccc(F)c1)c1cccnc1 [Compound 184, N-[4-Chloro-2-(3-fluoro-benzylidene-hydrazinocarbonyl)-phenyl]-nicotinamide]
49.2 | – | Cc1ccc(/C=N/NC(=O)c2cc(Cl)ccc2NC(=O)c2cccc(CN(C)CCCN(C)Cc3cccc(C(=O)Nc4ccc(Cl)cc4C(=O)N/N=C/c4ccc(C)cc4)c3)c2)cc1 [Compound 702, N1-[4-Chloro-2-({2-[(E)-1-(4-methylphenyl)methylidene]-hydrazino}carbonyl}phenyl}-3-{[{3-[(3-{[4-chloro-2-({2-[(E)-1-(4-methylphenyl)methylidene]hydrazino}carbonyl}anilino}carbonyl}benzyl}(methyl)amino)propyl)(methyl)amino]methyl]benzamide]
– | 22.4 | Cc1cccc(/C=N/NC(=O)c2cc(Br)ccc2NC(=O)c2ccc(CNCCN3CCOCC3)cc2)c1 [Compound 283, N-[4-Bromo-2-(3-methyl-benzylidene-hydrazinocarbonyl)-phenyl]-4-[(2-morpholin-4-yl-ethylamino)-methyl]-benzamide]
– | 3.52 | O=C(Nc1ccc(Br)cc1C(=O)N/N=C/c1ccc(Cl)c(C(F)(F)F)c1)c1ccc(CNCCN2CCOCC2)cc1 [Compound 714, N-[4-Bromo-2-(4-chloro-3-trifluoromethyl-benzylidene-hydrazinocarbonyl)-phenyl]-4-[(2-morpholin-4-yl-ethylamino)-methyl]-benzamide]
– | 8.78 | O=C(Nc1ccc(Cl)cc1C(=O)N/N=C/C=C/c1ccccc1)c1ccncc1 [Compound 349, N-[4-Chloro-2-(3-phenyl-allylidene-hydrazinocarbonyl)-phenyl]-isonicotinamide]
– | 7.69 | Cc1cccc(/C=N/NC(=O)c2cc(Br)ccc2NC(=O)c2ccc(CN3CCC(CO)CC3)cc2)c1 [Compound 334, N-[4-Bromo-2-(3-methyl-benzylidene-hydrazinocarbonyl)-phenyl]-4-(4-hydroxymethyl-piperidin-1-ylmethyl)-benzamide]
– | 1.21 | O=C(Nc1ccccc1C(=O)N/N=C/c1cccc(F)c1)c1ccccn1 [Compound 505, Pyridin-2-carboxylic acid [2-(3-fluoro-benzylidene-hydrazinocarbonyl)-phenyl]-amide]
– | 16.6 | O=C(Nc1ccc(Cl)cc1C(=O)N/N=C/C=C/c1ccccc1)c1cccnc1 [Compound 348, N-[4-Chloro-2-(3-phenyl-allylidene-hydrazinocarbonyl)-phenyl]-nicotinamide]
– | 0.95 | O=c1c2c3c(sc2nc(-c2cccc(CSc4nc[nH]n4)c2)n1/N=C/c1ccc(Cl)c(C(F)(F)F)c1)CCCC3 [Compound 650, 3-[(4-Chloro-3-trifluoromethyl-benzylidene)-amino]-2-[3-(1H-[1,2,4]triazol-3-ylsulfanylmethyl)-phenyl]-5,6,7,8-tetrahydro-3H-benzo[4,5]thieno[2,3-d]pyrimidin-4-one]
– | < 3 | Cc1csc(NC(=O)c2cccc(CN3CCN(CCO)CC3)c2)c1C(=O)N/N=C/c1ccc(F)cc1 [Compound 577, N-[3-(4-Fluoro-benzylidene-hydrazinocarbonyl)-4-methyl-thiophen-2-yl]-3-[4-(2-hydroxy-ethyl)-piperazin-1-ylmethyl]-benzamide]
– | 5.95 | O=C(Nc1sc2c(c1C(=O)N/N=C/c1cccc(F)c1)CCC2)c1cccc(CN2CCC(CO)CC2)c1 [Compound 819, N-[3-(3-Fluoro-benzylidene-hydrazinocarbonyl)-5,6-dihydro-4H-cyclopenta[b]thiophen-2-yl]-3-(4-hydroxymethyl-piperidin-1-ylmethyl)-benzamide]
31.7 | – | COc1ccc(C(=O)Nc2ccccc2C(=O)N/N=C/c2ccccn2)cc1OC [Compound 245]
– | 0.58 | COc1cc(OC)cc(C(=O)Nc2ccc(Br)cc2C(=O)N/N=C/c2ccc(Cl)cc2)c1 [Compound 117, N-[4-Bromo-2-(4-chloro-benzylidene-hydrazinocarbonyl)-phenyl]-3,5-dimethoxy-benzamide]
– | 2.2 | COc1ccc(/C=N/NC(=O)c2c(NC(=O)c3cccc(CN(CC(C)O)CC(C)O)c3)sc(C)c2C)cc1 (stereo not shown) [Compound 848, 3-{[Bis-(2-hydroxy-propyl)-amino]-methyl}-N-[3-(4-methoxy-benzylidene-hydrazinocarbonyl)-4,5-dimethyl-thiophen-2-yl]-benzamide]
– | < 3 | O=C(Nc1ccc(Cl)cc1C(=O)N/N=C/c1ccc(Cl)c(C(F)(F)F)c1)c1cccc(C[S+]([O-])Cc2ccco2)c1 (stereo not shown) [Compound 689, N-[4-Chloro-2-(4-chloro-3-trifluoromethyl-benzylidene-hydrazinocarbonyl)-phenyl]-3-(furan-2-ylmethanesulfinylmethyl)-benzamide]
– | 2.79 | O=C(Nc1ccc(N2CCC(N3CCCCC3)CC2)cc1C(=O)N/N=C/c1ccc(Cl)c(C(F)(F)F)c1)c1cccc(CSCCO)c1 [Compound 1067]
– | 10.6 | CCN(CC)CCOc1ccc(NC(=O)c2cccc(CN(CC(C)O)CC(C)O)c2)c(C(=O)NN=Cc2ccc(C)c(C)c2)c1 (stereo not shown) [Compound 943, 3-{[Bis-(2-hydroxy-propyl)-amino]-methyl}-N-[4-(2-diethylamino-ethoxy)-2-(3,4-dimethyl-benzylidene-hydrazinocarbonyl)-phenyl]-benzamide]
– | 34.7 | CCN(CC)CCN(C)Cc1cccc(C(=O)Nc2cc(OCCOC)c(OCCOC)cc2C(=O)N/N=C/c2ccc(C)cc2)c1 [Compound 1029, N-[4,5-Bis-(2-methoxy-ethoxy)-2-(4-methyl-benzylidene-hydrazinocarbonyl)-phenyl]-3-{[(2-diethylamino-ethyl)-methyl-amino]-methyl}-benzamide]
31.9 | – | CC(O)CN(Cc1cccc(C(=O)Nc2ccsc2C(=O)N/N=C/c2cccc(F)c2)c1)CC(C)O (stereo not shown) [Compound 992, 3-{[Bis-(2-hydroxy-propyl)-amino]-methyl}-N-[2-(3-fluoro-benzylidene-hydrazinocarbonyl)-thiophen-3-yl]-benzamide]
– | 1.58 | CCN(CC)CCN(Cc1cccc(C(=O)Nc2sc3c(c2C(=O)N/N=C/c2cccc(F)c2)CCCC3)c1)C(C)=O [Compound 655, 3-{[Acetyl-(2-diethylamino-ethyl)-amino]-methyl}-N-[3-(3-fluoro-benzylidene-hydrazinocarbonyl)-4,5,6,7-tetrahydro-benzo[b]-thiophen-2-yl]-benzamide]
– | 1.07 | Cc1ccc(/C=N/NC(=O)c2c(C)csc2NC(=O)c2cccc(CSCCCO)c2)cc1 [Compound 558, 3-(3-Hydroxy-propylsulfanylmethyl)-N-[4-methyl-3-(4-methyl-benzylidene-hydrazinocarbonyl)-thiophen-2-yl]-benzamide]
– | < 3 | Cc1ccc(/C=N/NC(=O)c2cc3ccccc3cc2NC(=O)c2cccc(CN3CCN(CCO)CC3)c2)cc1 [Compound 970, 3-[4-(2-Hydroxy-ethyl)-piperazin-1-ylmethyl]-N-[3-(4-methyl-benzylidene-hydrazinocarbonyl)-naphthalen-2-yl]-benzamide]

SMILES | inhibition at 300 µM [%] | IC50 [µM]
CCN(CC)CCN(C)Cc1cccc(C(=O)Nc2ccc(OCCCCF)cc2C(=O)N/N=C/c2ccc(OC)cc2)c1 [Compound 1061, 3-{[(2-Diethylamino-ethyl)-methyl-amino]-methyl}-N-[4-(4-fluoro-butoxy)-2-(4-methoxy-benzylidene-hydrazinocarbonyl)-phenyl]-benzamide] | – | 1.99
